Laboratory results taken from ChEMBL document CHEMBL1201862, “PubChem BioAssay data set” (2004).
Calls of active or inactive are those of the source.

Experiments:
[1] = target: T1, Tyrosine-protein phosphatase non-receptor type 7 (Homo sapiens, UniProt P35236); type: functional
T1 sequence (P35236 whole entry): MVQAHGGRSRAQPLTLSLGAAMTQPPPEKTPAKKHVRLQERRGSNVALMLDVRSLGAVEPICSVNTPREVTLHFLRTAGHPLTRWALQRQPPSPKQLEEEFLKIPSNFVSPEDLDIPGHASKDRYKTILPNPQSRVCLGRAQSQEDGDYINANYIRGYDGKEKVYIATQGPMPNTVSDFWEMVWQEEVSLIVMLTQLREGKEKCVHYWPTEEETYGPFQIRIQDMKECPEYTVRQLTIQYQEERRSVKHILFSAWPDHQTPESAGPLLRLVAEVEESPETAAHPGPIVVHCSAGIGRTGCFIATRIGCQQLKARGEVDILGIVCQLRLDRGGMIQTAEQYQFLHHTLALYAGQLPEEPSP

[2] = target: Luciferin 4-monooxygenase (Photinus pyralis, UniProt P08659); experiment: firefly luciferase enzyme inhibitors, dose response, biochemical, luminescence (AID 1891)
Luciferin 4-monooxygenase, sequence (P08659 whole entry): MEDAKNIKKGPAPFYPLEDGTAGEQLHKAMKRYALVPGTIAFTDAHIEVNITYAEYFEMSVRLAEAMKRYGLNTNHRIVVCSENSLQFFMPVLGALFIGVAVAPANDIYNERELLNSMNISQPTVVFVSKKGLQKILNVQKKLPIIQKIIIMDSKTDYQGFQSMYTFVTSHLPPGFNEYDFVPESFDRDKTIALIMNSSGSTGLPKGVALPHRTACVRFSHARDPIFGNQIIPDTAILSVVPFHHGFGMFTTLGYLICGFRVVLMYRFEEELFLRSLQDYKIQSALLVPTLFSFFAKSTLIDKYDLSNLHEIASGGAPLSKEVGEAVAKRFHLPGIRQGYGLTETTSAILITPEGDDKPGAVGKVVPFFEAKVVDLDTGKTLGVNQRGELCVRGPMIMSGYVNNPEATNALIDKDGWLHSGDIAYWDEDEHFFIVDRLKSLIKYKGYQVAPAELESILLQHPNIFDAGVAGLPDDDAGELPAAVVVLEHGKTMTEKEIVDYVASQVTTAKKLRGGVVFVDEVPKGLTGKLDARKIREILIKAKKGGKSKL

[3] = Luminescence Cell-Based Dose Confirmation HTS to Identify Inhibitors of Platelet Dense Granule Release. [Related pubchem assays: 1663 (Primary HTS), 1678 (Summary of Project)]; type: functional
[4] = target: T2, Tyrosine-protein phosphatase non-receptor type 22 (Homo sapiens, UniProt Q9Y2R2); type: functional
T2 sequence (Q9Y2R2 whole entry): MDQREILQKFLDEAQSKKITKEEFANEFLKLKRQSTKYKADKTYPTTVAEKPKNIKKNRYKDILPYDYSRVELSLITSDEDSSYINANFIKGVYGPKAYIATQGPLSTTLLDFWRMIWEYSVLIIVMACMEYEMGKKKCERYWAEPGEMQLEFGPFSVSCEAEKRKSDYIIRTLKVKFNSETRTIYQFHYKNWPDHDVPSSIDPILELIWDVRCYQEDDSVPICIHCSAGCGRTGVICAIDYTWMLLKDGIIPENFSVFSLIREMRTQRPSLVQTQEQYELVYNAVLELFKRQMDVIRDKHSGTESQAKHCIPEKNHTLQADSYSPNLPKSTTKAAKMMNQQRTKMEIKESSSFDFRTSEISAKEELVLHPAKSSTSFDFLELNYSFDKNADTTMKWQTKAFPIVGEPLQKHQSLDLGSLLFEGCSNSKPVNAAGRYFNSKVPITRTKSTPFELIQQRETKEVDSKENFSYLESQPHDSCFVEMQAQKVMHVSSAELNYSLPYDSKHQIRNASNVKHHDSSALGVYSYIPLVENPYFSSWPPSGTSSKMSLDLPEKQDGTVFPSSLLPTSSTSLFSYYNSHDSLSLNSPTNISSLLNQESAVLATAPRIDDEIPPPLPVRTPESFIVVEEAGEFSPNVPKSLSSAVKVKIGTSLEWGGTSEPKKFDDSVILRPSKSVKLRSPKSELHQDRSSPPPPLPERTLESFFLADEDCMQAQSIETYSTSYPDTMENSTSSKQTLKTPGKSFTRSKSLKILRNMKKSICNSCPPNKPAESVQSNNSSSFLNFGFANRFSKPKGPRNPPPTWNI

[5] = target: T2, Tyrosine-protein phosphatase non-receptor type 22; type: functional; remark: listed apart in the source
[6] = inhibitors of intracellular T. cruzi replication, confirmation, NIH3T3 host cells, beta-gal luminescence (AID 2044); type: functional, cell-based;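 further: intracellular parasites grown in NIH/3T3 mouse fibroblasts as host cells; luminescent beta-galactosidase reporter signal from transgenic T. cruzi replicating inside host cells; inhibitors lower the luminescence signal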
[7] = cytotoxicity toward NIH3T3 fibroblasts, dose response, counter-screen, cell-based, ATP luminescence, mouse fibroblasts (AID 2010); type: functional;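 further: cells exposed to compound for about 90 hours before reading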
[8] = Luminescence Cell-Based Dose Retest to Confirm Inhibitors of Cancer Stem Cells. [Related pubchem assays (depositor defined):AID2717, AID2721]; type: functional; details: Homo sapiens
Jurkat = experiment: antigen receptor-induced NF-kB inhibitors, dose response, Jurkat, luciferase reporter, luminescence, B- and T-cell (AID 489004); type: functional, cell-based; details: Homo sapiens;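 further: NF-kB luciferase reporter Jurkat cells stimulated with PMA plus ionomycin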
[9] = cytotoxicity in HEK-293T NF-kB-Luc cells, dose response, cytotoxicity control for B/T-cell NF-kB inhibitor project, cell-based, uHTS hits (AID 489019); type: functional;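 further: IC50 reflects cytotoxicity as loss of cell viability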
INS1 = experiment: beta cell apoptosis inhibitors, cytokine rescue, dose response, luminescence, retest (AID 449756); type: functional, cell-based; details: Rattus norvegicus;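 further: cell death triggered by IL-1 beta plus TNF-alpha plus IFN-gamma mixture; protective hits raise ATP signal compared with cytokine alone wells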
[10] = Shn3 3'UTR reporter inhibitors, dose response, cell-based, Clone20 osteoblasts, firefly luciferase, cherry-picked (AID 624132); type: functional;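 further: firefly luciferase luminescence from reporter carrying the Shn3 3'UTR in osteoblasts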
[11] = HepG2 cell cytotoxicity, dose response, cytotoxicity control for Shn3 inhibitor project, CellTiter-Glo, cherry-picked (AID 624134); type: functional, cell-based
[12] = control 3'UTR Renilla luciferase suppression, dose response, counter-screen for Shn3 inhibitor project, cell-based, Clone20-Shn3RL, cherry-picked (AID 624133); type: functional
HEK293 [13] = experiment: cells; details: Homo sapiens
HEK293 [14] = experiment: cells; details: Homo sapiens; remark: listed apart in the source
Large T antigen = Large T antigen (Simian virus 40, UniProt P03070); type: functional, Betapolyomavirus macacae;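 further: Confirmatory-stage PubChem screen for compounds that inhibit SV40 T antigen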
Large T antigen, sequence (P03070 whole entry): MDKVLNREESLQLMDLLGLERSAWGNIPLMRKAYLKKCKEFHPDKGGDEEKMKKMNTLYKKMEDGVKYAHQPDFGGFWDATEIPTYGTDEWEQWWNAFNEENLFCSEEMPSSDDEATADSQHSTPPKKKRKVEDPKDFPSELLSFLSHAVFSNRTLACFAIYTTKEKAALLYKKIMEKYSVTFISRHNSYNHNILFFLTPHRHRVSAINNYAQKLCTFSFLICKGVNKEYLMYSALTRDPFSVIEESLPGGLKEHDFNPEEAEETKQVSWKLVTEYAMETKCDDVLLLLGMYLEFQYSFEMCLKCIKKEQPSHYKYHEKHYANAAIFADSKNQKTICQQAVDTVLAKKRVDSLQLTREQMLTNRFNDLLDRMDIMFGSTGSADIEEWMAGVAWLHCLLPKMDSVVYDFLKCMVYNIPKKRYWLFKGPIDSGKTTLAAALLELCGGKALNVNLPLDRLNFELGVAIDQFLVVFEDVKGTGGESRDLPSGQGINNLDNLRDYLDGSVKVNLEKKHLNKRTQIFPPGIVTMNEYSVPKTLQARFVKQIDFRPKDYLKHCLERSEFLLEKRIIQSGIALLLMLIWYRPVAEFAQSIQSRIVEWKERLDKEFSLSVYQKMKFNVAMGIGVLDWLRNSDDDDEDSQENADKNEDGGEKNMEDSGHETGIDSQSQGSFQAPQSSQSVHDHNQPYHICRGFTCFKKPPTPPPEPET

[15] = target: Alkaline phosphatase, placental type (Homo sapiens, UniProt P05187); experiment: PLAP enzyme inhibitors, confirmation, biochemical, luminescence (AID 1512); type: functional
Alkaline phosphatase, placental type, sequence (P05187 whole entry): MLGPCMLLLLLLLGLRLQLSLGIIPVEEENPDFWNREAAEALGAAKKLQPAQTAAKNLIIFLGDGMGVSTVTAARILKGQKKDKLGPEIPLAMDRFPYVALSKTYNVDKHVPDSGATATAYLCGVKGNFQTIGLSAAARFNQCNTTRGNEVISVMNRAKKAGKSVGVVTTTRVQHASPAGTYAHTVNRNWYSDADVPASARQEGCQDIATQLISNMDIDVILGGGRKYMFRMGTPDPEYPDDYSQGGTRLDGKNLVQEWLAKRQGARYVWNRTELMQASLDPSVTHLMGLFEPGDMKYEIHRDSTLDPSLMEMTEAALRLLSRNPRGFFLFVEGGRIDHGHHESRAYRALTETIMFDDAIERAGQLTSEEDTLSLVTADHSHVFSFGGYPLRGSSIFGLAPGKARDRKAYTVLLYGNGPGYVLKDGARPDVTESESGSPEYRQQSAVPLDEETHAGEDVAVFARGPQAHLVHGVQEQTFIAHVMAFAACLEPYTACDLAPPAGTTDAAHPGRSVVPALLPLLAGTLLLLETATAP

[16] = target: T3, Alkaline phosphatase, tissue-nonspecific isozyme (Homo sapiens, UniProt P05186); experiment: human TNAP enzyme inhibitors, SAR follow-up, biochemical, luminescent, dose response (AID 1056)
T3 sequence (P05186 whole entry): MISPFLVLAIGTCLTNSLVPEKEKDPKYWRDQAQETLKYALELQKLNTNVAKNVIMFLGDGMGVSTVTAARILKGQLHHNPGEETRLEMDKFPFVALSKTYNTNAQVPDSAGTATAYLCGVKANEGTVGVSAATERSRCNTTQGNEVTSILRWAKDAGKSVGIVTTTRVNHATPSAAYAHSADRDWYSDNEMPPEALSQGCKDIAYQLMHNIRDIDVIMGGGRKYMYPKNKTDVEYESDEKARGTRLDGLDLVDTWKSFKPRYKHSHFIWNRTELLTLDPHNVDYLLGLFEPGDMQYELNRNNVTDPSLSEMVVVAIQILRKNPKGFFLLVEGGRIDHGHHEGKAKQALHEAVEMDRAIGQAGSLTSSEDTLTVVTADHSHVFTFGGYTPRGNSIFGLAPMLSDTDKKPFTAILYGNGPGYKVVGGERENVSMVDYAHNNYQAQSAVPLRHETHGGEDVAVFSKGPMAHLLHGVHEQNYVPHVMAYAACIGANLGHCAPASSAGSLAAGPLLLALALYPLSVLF

**Q.** With COC(=O)C(C(=O)NCC1CCCO1)C1CCCCCC1 (configuration not stated) as the compound, how does the IC50 [1] read?
**A.** The IC50 was > 79.4 µM (inactive).

**Q.** And the EC50 [2]?
**A.** The EC50 was > 112 µM (not active).

**Q.** What about the EC50 [3] of the same compound?
**A.** Its EC50 is > 112 µM (not active).

**Q.** What about the IC50 [4] of the same compound?
**A.** Its IC50 is > 79.4 µM (inactive).

**Q.** And the IC50 [5]?
**A.** Its IC50 is > 79.4 µM (inactive).

**Q.** For Cc1sc2ncnc(N3CCN(CCOc4ccc(Cl)cc4)CC3)c2c1C, which EC50 [6] is on record?
**A.** Its EC50 is 2.29 µM (active).

**Q.** And the EC50 [7]?
**A.** Its EC50 is > 30 µM (not active).

**Q.** And the AC50 [8]?
**A.** The AC50 was 5.5 µM (active).

**Q.** What about the IC50 (Jurkat) of the same compound?
**A.** The IC50 was 64.1 µM (inactive).

**Q.** What about the IC50 [9] of the same compound?
**A.** The IC50 was > 80 µM (inactive).

**Q.** And the AC50 (INS1)?
**A.** Its AC50 is 2.74 µM (active).

**Q.** What about the AC50 [10] of the same compound?
**A.** Its AC50 is 1.35 µM (active).

**Q.** And the AC50 [11]?
**A.** The AC50 was 3.27 µM (active).

**Q.** And the AC50 [12]?
**A.** The AC50 was 6.27 µM (active).

**Q.** Which IC50 [1] does the source give for Cc1cc(Cl)ccc1OCC(=O)OCC(=O)Nc1ccc(F)c([N+](=O)[O-])c1 here?
**A.** Its IC50 is > 79.4 µM (inactive).

**Q.** And the IC50 [4]?
**A.** The IC50 was > 79.4 µM (inactive).

**Q.** And the IC50 [5]?
**A.** The IC50 was > 79.4 µM (inactive).

**Q.** Which EC50 (HEK293 [13]) does the source give for CC(C)Cc1cc(-c2ccco2)c(C#N)c(N)n1 here?
**A.** Its EC50 is > 59.6 µM (inactive).

**Q.** What about the EC50 (HEK293 [14]) of the same compound?
**A.** The EC50 was > 59.6 µM (inactive).

**Q.** What does the source list for Cn1c(SCC(=O)c2ccc(O)c(O)c2)nnc1-c1cccs1?
**A.** IC50 (Large T antigen): > 100 µM (active); IC50 [15]: 4.9 µM (active); IC50 [16]: > 100 µM (inactive)
